In one assay the target is T1, human LXR alpha (Homo sapiens, UniProt Q13133).
T1 construct: human LXR alpha (aa 164 to 447); unspecified tag ('tagged versions'); made in house; host or cells: E. coli BL21 (pLysS)
T1 sequence (Q13133 164-447): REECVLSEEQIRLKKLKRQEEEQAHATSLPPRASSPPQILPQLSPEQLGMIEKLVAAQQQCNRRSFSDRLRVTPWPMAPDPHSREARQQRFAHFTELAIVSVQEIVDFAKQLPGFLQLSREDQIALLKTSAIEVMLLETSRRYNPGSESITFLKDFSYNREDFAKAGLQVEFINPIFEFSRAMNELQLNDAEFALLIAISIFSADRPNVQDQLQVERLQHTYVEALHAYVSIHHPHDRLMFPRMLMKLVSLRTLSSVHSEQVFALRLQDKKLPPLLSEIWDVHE
The experiment in a line: Radioligand binding assay (SPA), LXR alpha LBD. The note with it: radioligand displacement, LXRα-LBD on SPA beads; read-out: LXRalpha Binding IC50. Here is the method:
(§1) The following tests were carried out in order to determine the activity of the compounds of the present invention. Background information on the performed assays can be found in: Nichols J S et al. “Development of a scintillation proximity assay for peroxisome proliferator-activated receptor gamma ligand binding domain”, Anal Biochem. 1998, 257: 112-119.
(§2) Mammalian expression vectors were constructed to express full-length human LXR alpha and LXR beta. Bacterial expression vectors were constructed to produce tagged versions of the ligand binding domains (LBD) of human LXR alpha (aa 164 to 447) and human LXR beta (aa 155 to 460). To accomplish this, the portions of the sequences encoding the LBDs were amplified from the full-length clones by PCR and then subcloned into the plasmid vectors. Final clones were verified by DNA sequence analysis (Willy et al., Genes Dev. 1995, 9:1033-45; Song et al., Proc Natl Acad Sci USA. 1994, 91:10809-13).
(§3) Induction, expression, and purification of LBD proteins were performed in E. coli strain BL21 (pLysS) cells by standard methods (Ref: Current Protocols in Molecular Biology, Wiley Press, edited by Ausubel et al).
(§4) Radioligand Binding Assay
(§5) LXR alpha and LXR beta receptor binding were assayed in buffer consisting of 50 mM HEPES, pH 7.4, 10 mM NaCl, 5 mM MgCl2. For each 96-well reaction, 500 ng of LXRα-LBD or 700 ng of LXR beta-LBD proteins were bound to 80 μg or 40 μg SPA beads respectively, in a final volume of 50 μl by shaking. The resulting slurry was incubated for 1 h at RT and centrifuged for 2 min at 1300×g. The supernatant containing unbound protein was removed, and the semi-dry pellet containing the receptor-coated beads was re-suspended in 50 μl of buffer. Radioligand (eg. 100,000 dpm of (N-(2,2,2-trifluoroethyl)-N-[4-(2,2,2-trifluoro-1-hydroxy-1-trifluoromethylethyl)-phenyl]-benzenesulfonamide)) was added, and the reaction incubated at RT for 1 h in the presence of test compounds, and then scintillation proximity counting was performed. All binding assays were performed in 96-well plates and the amount of bound ligand was measured on a Packard TopCount using OptiPlates (Packard). Dose response curves were measured within a range of concentration from 10^−10 M to 10^−4 M.
(In a radioligand displacement assay an active substance lowers the binding of a labelled ligand.)

The target in the next assay is T2, human LXR beta (Homo sapiens, UniProt P55055).
T2 construct: human LXR beta (aa 155 to 460); unspecified tag ('tagged versions'); made in house; host or cells: E. coli BL21 (pLysS)
T2 sequence (P55055 155-460): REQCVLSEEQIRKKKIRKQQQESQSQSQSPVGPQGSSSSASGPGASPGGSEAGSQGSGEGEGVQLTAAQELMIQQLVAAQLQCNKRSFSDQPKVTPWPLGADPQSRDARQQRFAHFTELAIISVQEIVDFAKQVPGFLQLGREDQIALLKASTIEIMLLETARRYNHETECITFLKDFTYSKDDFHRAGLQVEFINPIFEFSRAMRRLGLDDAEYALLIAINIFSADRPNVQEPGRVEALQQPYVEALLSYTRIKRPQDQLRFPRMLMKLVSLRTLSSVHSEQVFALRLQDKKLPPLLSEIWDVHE
The experiment in a line: Radioligand binding assay (SPA), LXR beta LBD. Particulars: radioligand displacement, LXR beta-LBD on SPA beads; read-out: LXRbeta Binding IC50. Here is the method: as §1, §2, §3, §4, §5

For the compound `O=C(O)c1ccccc1-c1cccc(C2CN(S(=O)(=O)c3ccccc3)C(=O)N2c2ccccc2)c1` (centres unmarked) [Example 11, 3′-(1-Benzenesulfonyl-2-oxo-3-phenyl-imidazolidin-4-yl)-biphenyl-2-carboxylic acid], the 50% inhibitory concentration (IC50) at human LXR alpha was determined as 13000 nM; on human LXR beta, 46100 nM.

For `CC(C)N1C(=O)N(S(=O)(=O)c2ccccc2)CC1c1cccc(-c2cccc(S(C)(=O)=O)c2)c1` (centres unmarked) [Example 12, 1-Benzenesulfonyl-3-isopropyl-4-(3′-methanesulfonyl-biphenyl-3-yl)-imidazolidin-2-one], the values for the IC50 at human LXR alpha and on human LXR beta were 147 nM and 24.3 nM, respectively.

Regarding `CC(C)N1C(=O)N(S(=O)(=O)C(C)C)CC1c1cccc(-c2cccc(S(C)(=O)=O)c2)c1` (centres unmarked) [Example 13, 3-Isopropyl-4-(3′-methanesulfonyl-biphenyl-3-yl)-1-(propane-2-sulfonyl)-imidazolidin-2-one], the 50% inhibitory concentration (IC50) on human LXR alpha is 2490 nM; at human LXR beta, 36 nM.

Take `CC(C)N1C(=O)N(S(=O)(=O)c2ccccc2F)CC1c1cccc(-c2cccc(S(C)(=O)=O)c2)c1` (centres unmarked) [Example 14, 1-(2-Fluoro-benzenesulfonyl)-3-isopropyl-4-(3′-methanesulfonyl-biphenyl-3-yl)-imidazolidin-2-one]: the half-inhibitory concentration (IC50) worked out at 10 nM on human LXR alpha and 6 nM on human LXR beta.

As to `Cc1oncc1S(=O)(=O)N1CC(c2cccc(-c3cccc(S(C)(=O)=O)c3)c2)N(C(C)C)C1=O` (centres unmarked) [Example 15, 3-Isopropyl-4-(3′-methanesulfonyl-biphenyl-3-yl)-1-(5-methyl-isoxazole-4-sulfonyl)-imidazolidin-2-one], the IC50 at human LXR alpha was 2580 nM; at human LXR beta, 160 nM.

In the case of `CS(=O)(=O)c1cc(-c2cccc(C3CN(S(=O)(=O)c4ccccc4)C(=O)N3c3ccccc3)c2)ccc1CO` (centres unmarked) [Example 16, 1-Benzenesulfonyl-4-(4′-hydroxymethyl-3′-methanesulfonyl-biphenyl-3-yl)-3-phenyl-imidazolidin-2-one], the concentration for half-maximal inhibition (IC50) was 475 nM on human LXR alpha and 29 nM on human LXR beta.

`CC(C)N1C(=O)N(S(C)(=O)=O)CC1c1cccc(-c2cccc(S(C)(=O)=O)c2)c1` (centres unmarked) [Example 17, 3-Isopropyl-1-methanesulfonyl-4-(3′-methanesulfonyl-biphenyl-3-yl)-imidazolidin-2-one]: the IC50 was determined as 52800 nM on human LXR alpha and 2730 nM on human LXR beta.

On to `CCS(=O)(=O)N1CC(c2cccc(-c3cccc(S(C)(=O)=O)c3)c2)N(C(C)C)C1=O` (centres unmarked) [Example 18, 1-Ethanesulfonyl-3-isopropyl-4-(3′-methanesulfonyl-biphenyl-3-yl)-imidazolidin-2-one], for which the IC50 was 5010 nM at human LXR alpha and 106 nM on human LXR beta.

On to `CS(=O)(=O)c1cc(-c2ccc(C3CN(S(=O)(=O)c4ccccc4)C(=O)N3c3ccccc3)cc2)ccc1CO` (centres unmarked) [Example 19, 1-Benzenesulfonyl-4-(4′-hydroxymethyl-3′-methanesulfonyl-biphenyl-4-yl)-3-phenyl-imidazolidin-2-one], for which the IC50 stood at 45 nM at human LXR alpha and 18 nM at human LXR beta.

With `CC(C)N1C(=O)N(S(=O)(=O)c2ccccc2)CC1c1cccc(-c2ccc(CO)c(S(C)(=O)=O)c2)c1` (centres unmarked) [Example 20, 1-Benzenesulfonyl-4-(4′-hydroxymethyl-3′-methanesulfonyl-biphenyl-3-yl)-3-isopropyl-imidazolidin-2-one], the IC50 on human LXR alpha was 6 nM; at human LXR beta it was 1 nM.

For `CC(C)N1C(=O)N(S(=O)(=O)c2ccccc2)CC1c1cccc(-c2cccc([N+](=O)[O-])c2)c1` (centres unmarked) [Example 21, 1-Benzenesulfonyl-3-isopropyl-4-(3′-nitro-biphenyl-3-yl)-imidazolidin-2-one], the IC50 at human LXR alpha was 2910 nM; on human LXR beta it was 155 nM.

Consider `Cc1ccc(F)cc1-c1cccc(C2CN(S(=O)(=O)c3ccccc3)C(=O)N2C(C)C)c1` (centres unmarked) [Example 22, 1-Benzenesulfonyl-4-(5′-fluoro-2′-methyl-biphenyl-3-yl)-3-isopropyl-imidazolidin-2-one], for which the 50% inhibitory concentration (IC50) at human LXR alpha was 4700 nM; at human LXR beta, 1360 nM.

For `CC(C)N1C(=O)N(S(=O)(=O)c2ccccc2)CC1c1cccc(-c2cncc(S(C)(=O)=O)c2)c1` (centres unmarked) [Example 23, 1-Benzenesulfonyl-3-isopropyl-4-[3-(5-methanesulfonyl-pyridin-3-yl)-phenyl]-imidazolidin-2-one], the IC50 was determined as 2790 nM at human LXR alpha and 25 nM on human LXR beta.

Turning to `CC(C)N1C(=O)N(S(=O)(=O)c2ccccc2)CC1c1cccc(-c2cccc(S(N)(=O)=O)c2)c1` (centres unmarked) [Example 24, 3′-(1-Benzenesulfonyl-3-isopropyl-2-oxo-imidazolidin-4-yl)-biphenyl-3-sulfonic acid amide], the values for the half-maximal inhibitory concentration (IC50) on human LXR alpha and on human LXR beta were 48 nM and 1 nM, respectively.

For `CC(C)N1C(=O)N(S(=O)(=O)c2ccccc2)CC1c1cccc(-c2cc(F)ccc2Cl)c1` (centres unmarked) [Example 25, 1-Benzenesulfonyl-4-(2′-coro-5′-fluoro-biphenyl-3-yl)-3-isopropyl-imidazolidin-2-one], the values for the concentration for half-maximal inhibition (IC50) at human LXR alpha and at human LXR beta were 2030 nM and 265 nM, respectively.

Turning to `Cc1ccc(Cl)cc1-c1cccc(C2CN(S(=O)(=O)c3ccccc3)C(=O)N2C(C)C)c1` (centres unmarked) [Example 26, 1-Benzenesulfonyl-4-(5′-chloro-2′-methyl-biphenyl-3-yl)-3-isopropyl-imidazolidin-2-one], the values for the IC50 at human LXR alpha and at human LXR beta were 1990 nM and 315 nM, respectively.

As for `COc1ccc(F)cc1-c1cccc(C2CN(S(=O)(=O)c3ccccc3)C(=O)N2C(C)C)c1` (centres unmarked) [Example 27, 1-Benzenesulfonyl-4-(5′-fluoro-2′-methoxy-biphenyl-3-yl)-3-isopropyl-imidazolidin-2-one], the figures for the half-maximal inhibitory concentration (IC50) at human LXR alpha and on human LXR beta were 6230 nM and 3800 nM, respectively.

As to `CC(C)N1C(=O)N(S(=O)(=O)c2ccccc2)CC1c1cccc(-c2cc(C#N)ccc2Cl)c1` (centres unmarked) [Example 28, 3′-(1-Benzenesulfonyl-3-isopropyl-2-oxo-imidazolidin-4-yl)-6-chloro-biphenyl-3-carbonitrile], the figures for the IC50 on human LXR alpha and at human LXR beta were 2960 nM and 505 nM, respectively.

`CC(C)N1C(=O)N(S(=O)(=O)c2ccccc2)CC1c1cccc(-c2cccc(S(=O)(=O)NC(C)(C)C)c2)c1` (centres unmarked) [Example 29, 3′-(1-Benzenesulfonyl-3-isopropyl-2-oxo-imidazolidin-4-yl)-biphenyl-3-sulfonic acid tert-butylamide]: the half-maximal inhibitory concentration (IC50) at human LXR alpha is 2250 nM; at human LXR beta, 410 nM.

Turning to `CCOc1ccc(F)c(-c2cccc(C3CN(S(=O)(=O)c4ccccc4)C(=O)N3C(C)C)c2)c1` (centres unmarked) [Example 30, 1-Benzenesulfonyl-4-(5′-ethoxy-2′-fluoro-biphenyl-3-yl)-3-isopropyl-imidazolidin-2-one], the IC50 at human LXR alpha amounted to 95 nM; at human LXR beta it was 10.4 nM.

Take `Cc1ccc(C)c(-c2cccc(C3CN(S(=O)(=O)c4ccccc4)C(=O)N3C(C)C)c2)c1` (centres unmarked) [Example 31, 1-Benzenesulfonyl-4-(2′,5′-dimethyl-biphenyl-3-yl)-3-isopropyl-imidazolidin-2-one]: the IC50 at human LXR alpha amounted to 815 nM; on human LXR beta, 165 nM.

In the case of `CC(C)N1C(=O)N(S(=O)(=O)c2ccccc2)CC1c1cccc(-c2cc(F)ccc2F)c1` (centres unmarked) [Example 32, 1-Benzenesulfonyl-4-(2′,5′-difluoro-biphenyl-3-yl)-3-isopropyl-imidazolidin-2-one], the concentration for half-maximal inhibition (IC50) was determined as 950 nM at human LXR alpha and 99.5 nM on human LXR beta.

A word on the IC50: it is the concentration needed to halve the response being measured.

Values taken from patent publication US8063088B2 (Hoffmann-La Roche Inc., priority 2008, dated 2011).
